Values joined by “and” are separate entries in the source; they are usually repeats but may differ in a detail not shown here. Equal entries are not always repeated.
How the values were obtained:
OX2 = target: T1, OX2 (Homo sapiens, UniProt O43614); experiment: Orexin receptor cell-based functional assay, [Ca2+]i by FLIPR, CHO-OX2 cells; settings: FLIPR calcium, antagonism of EC90 of [OX]
T1 construct: expressed in transfected cells; host or cells: CHO (CHO-OX2)
T1 sequence (O43614 1-444): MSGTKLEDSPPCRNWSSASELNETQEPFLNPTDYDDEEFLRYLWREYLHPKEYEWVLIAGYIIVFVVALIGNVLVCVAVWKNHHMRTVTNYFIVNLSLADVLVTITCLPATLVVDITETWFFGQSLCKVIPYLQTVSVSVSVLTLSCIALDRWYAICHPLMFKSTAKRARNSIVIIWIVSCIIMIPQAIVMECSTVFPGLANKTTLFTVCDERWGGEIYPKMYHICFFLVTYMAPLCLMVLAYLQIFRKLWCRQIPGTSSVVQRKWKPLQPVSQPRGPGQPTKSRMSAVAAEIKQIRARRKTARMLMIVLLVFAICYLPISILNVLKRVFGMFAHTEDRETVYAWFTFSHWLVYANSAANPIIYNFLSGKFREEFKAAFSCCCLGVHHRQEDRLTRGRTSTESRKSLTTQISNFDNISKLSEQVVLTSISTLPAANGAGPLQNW
In short: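 CHO cells expressing human OX1 or OX2 (20,000/well, grown overnight) were loaded with Calcium6 dye plus 2.5 mM probenecid for 2 h at 37 °C, then preincubated 30 min with compound (0.1 nM–10 µM). FLIPR fluorescence (ex 488/em 540 nm) was tracked before and after an EC90 orexin challenge.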

OX1 = target: T2, OX1 (Homo sapiens, UniProt O43613); experiment: Orexin receptor cell-based functional assay, [Ca2+]i by FLIPR, CHO-OX1 cells; settings: FLIPR calcium, antagonism of EC90 of [OX], read-out: OXI, IC50
T2 construct: expressed in transfected cells; host or cells: CHO (CHO-OX1)
T2 sequence (O43613 1-425): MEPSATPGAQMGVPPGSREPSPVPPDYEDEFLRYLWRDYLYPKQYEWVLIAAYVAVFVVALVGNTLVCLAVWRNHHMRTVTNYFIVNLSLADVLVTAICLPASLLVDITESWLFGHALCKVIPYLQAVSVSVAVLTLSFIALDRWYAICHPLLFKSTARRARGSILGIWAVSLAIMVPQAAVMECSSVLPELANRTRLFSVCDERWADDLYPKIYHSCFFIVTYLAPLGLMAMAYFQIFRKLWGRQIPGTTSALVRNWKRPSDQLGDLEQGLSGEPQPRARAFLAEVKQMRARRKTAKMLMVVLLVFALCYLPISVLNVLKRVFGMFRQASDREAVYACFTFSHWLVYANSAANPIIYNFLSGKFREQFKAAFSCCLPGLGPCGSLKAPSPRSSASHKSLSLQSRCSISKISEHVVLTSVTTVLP

SMILES	IC50 (OX2)	IC50 (OX1)
Cc1ccc(-n2nccn2)c(C(=O)N2CC(F)(F)C[C@@H](C)[C@H]2CNc2ncc(Cl)cn2)c1 [Compound 6]	> 5000 nM	8 nM
C[C@@H]1CC(F)(F)CN(C(=O)c2nn(C)cc2-c2cccc(F)c2)[C@@H]1CNc1ncc(C(F)(F)F)cn1 [Compound 25]	> 5000 nM	4 nM
Cc1ccnc(-c2sc(C)nc2C(=O)N2CC(F)(F)C[C@@H](C)[C@H]2CNc2ncc(C(F)(F)F)cn2)c1 [Compound 74]	> 5000 nM	6 nM
CC#Cc1ccc(C)nc1C(=O)N1CC(F)(F)C[C@@H](C)[C@H]1CNc1ncc(C(F)(F)F)cn1 [Compound 235, ((2S,3R)-5,5-difluoro-3-methyl-2-(((5-(trifluoromethyl)pyrimidin-2-yl)amino)methyl)piperidin-1-yl)(6-methyl-3-(prop-1-yn-1-yl)pyridin-2-yl)methanone]	> 5000 nM	250 nM
Cc1ccc(-n2nccn2)c(C(=O)N2CC(F)(F)C[C@@H](C)[C@H]2CNc2ncc(C(F)(F)F)cn2)n1 [Compound 12]	> 5000 nM	15 nM
COc1ccc(-n2nccn2)c(C(=O)N2CC(F)(F)C[C@@H](C)[C@H]2CNc2ccc(C(F)(F)F)cn2)n1 [Compound 202, ((2S,3R)-5,5-difluoro-3-methyl-2-(((5-(trifluoromethyl)pyridin-2-yl)amino)methyl)piperidin-1-yl)(6-methoxy-3-(2H-1,2,3-triazol-2-yl)pyridin-2-yl)methanone]	> 5000 nM	150 nM
C[C@@H]1CC(F)(F)CN(C(=O)c2nn(C)cc2-c2ccc(F)cn2)[C@@H]1CNc1ncc(C(F)(F)F)cn1 [Compound 42]	> 5000 nM	> 1000 nM
COc1ccc(-c2cn(C)nc2C(=O)N2CC(F)(F)C[C@@H](C)[C@H]2CNc2ncc(C(F)(F)F)cn2)nc1 [Compound 45]	> 5000 nM	47 nM
Cc1ccc(-c2cn(C)nc2C(=O)N2CC(F)(F)C[C@@H](C)[C@H]2CNc2ncc(C(F)(F)F)cn2)cn1 [Compound 89]	> 5000 nM	23 nM
C[C@@H]1CC(F)(F)CN(C(=O)c2cn(C)nc2-c2ccccn2)[C@@H]1CNc1ncc(C(F)(F)F)cn1 [Compound 93]	> 5000 nM	156 nM
Cc1ccc(-n2ncc(C)n2)c(C(=O)N2CC(F)(F)C[C@@H](C)[C@H]2CNc2ncc(C(F)(F)F)cn2)c1 [Compound 7]	> 5000 nM	7 nM
Cc1cccc(-c2cn(C)nc2C(=O)N2CC(F)(F)C[C@@H](C)[C@H]2CNc2ncc(C(F)(F)F)cn2)c1 [Compound 26]	> 5000 nM	4 nM
Cc1nc(C(=O)N2CC(F)(F)C[C@@H](C)[C@H]2CNc2ncc(C(F)(F)F)cn2)c(-c2ccccc2)o1 [Compound 85]	> 5000 nM	12 nM and 30 nM
Cc1ccc(-n2nccn2)c(C(=O)N2CC(F)(F)C[C@@H](C)[C@H]2CNc2ncc(Cl)cn2)n1 [Compound 13]	> 5000 nM	15 nM
Cc1ccc(-c2ncccn2)c(C(=O)N2CC(F)(F)C[C@@H](C)[C@H]2COc2ccc(C(F)(F)F)cn2)n1 [Compound 215, ((2S,3R)-5,5-difluoro-3-methyl-2-(((5-(trifluoromethyl)pyridin-2-yl)oxy)methyl)piperidin-1-yl)(6-methyl-3-(pyrimidin-2-yl)pyridin-2-yl)methanone]	> 5000 nM	5 nM
C[C@@H]1CC(F)(F)CN(C(=O)c2nn(C)cc2-c2ncc(Cl)cn2)[C@@H]1CNc1ncc(C(F)(F)F)cn1 [Compound 218, (4-(5-chloropyrimidin-2-yl)-1-methyl-1H-pyrazol-3-yl)((2S,3R)-5,5-difluoro-3-methyl-2-(((5-(trifluoromethyl)pyrimidin-2-yl)amino)methyl)piperidin-1-yl)methanone]	> 5000 nM	7 nM
C[C@@H]1CC(F)(F)CN(C(=O)c2nn(C)cc2-c2ncc(F)cn2)[C@@H]1COc1ncc(C(F)(F)F)cn1 [Compound 246]	> 5000 nM	4820 nM
Cc1ccc(-c2sc(C)nc2C(=O)N2CC(F)(F)C[C@@H](C)[C@H]2CNc2ncc(C(F)(F)F)cn2)nc1 [Compound 76]	> 5000 nM	10 nM
C[C@@H]1CC(F)(F)CN(C(=O)c2cc(F)ccc2-n2nccn2)[C@@H]1CNc1ncc(C(F)(F)F)cn1 [Compound 1, ((2S,3R)-5,5-difluoro-3-methyl-2-(((5-(trifluoromethyl)pyrimidin-2-yl)amino)methyl)piperidin-1-yl)(5-fluoro-2-(2H-1,2,3-triazol-2-yl)phenyl)methanone]	> 5000 nM	192 nM
C[C@@H]1CC(F)(F)CN(C(=O)c2nn(C)cc2-c2cncnc2)[C@@H]1CNc1ncc(C(F)(F)F)cn1 [Compound 230, ((2S,3R)-5,5-difluoro-3-methyl-2-(((5-(trifluoromethyl)pyrimidin-2-yl)amino)methyl)piperidin-1-yl)(1-methyl-4-(pyrimidin-5-yl)-1H-pyrazol-3-yl)methanone]	> 5000 nM	74 nM
Cc1ccc(-c2ncccn2)c(C(=O)N2CC(F)(F)C[C@@H](C)[C@H]2CNc2ncc(C(F)(F)F)cn2)n1 [Compound 17, ((2S,3R)-5,5-difluoro-3-methyl-2-(((5-(trifluoromethyl)pyrimidin-2-yl)amino)methyl)piperidin-1-yl)(6-methyl-3-(pyrimidin-2-yl)pyridin-2-yl)methanone]	> 5000 nM	8 nM
Cc1nc(-c2ccccc2)c(C(=O)N2CC(F)(F)C[C@@H](C)[C@H]2CNc2ncc(C(F)(F)F)cn2)s1 [Compound 48]	> 5000 nM	607 nM
CCc1cnc(NC[C@@H]2[C@H](C)CC(F)(F)CN2C(=O)c2nn(C)cc2-c2ccccc2)nc1 [Compound 20]	> 5000 nM	87 nM
Cc1cc(C(=O)N2CC(F)(F)C[C@@H](C)[C@H]2CNc2ncc(C(F)(F)F)cn2)c(-c2ccccn2)s1 [Compound 91]	> 5000 nM	7 nM
Cc1ccc(C#CC2CC2)c(C(=O)N2CC(F)(F)C[C@@H](C)[C@H]2CNc2ncc(C(F)(F)F)cn2)n1 [Compound 234, (3-(cyclopropylethynyl)-6-methylpyridin-2-yl)((2S,3R)-5,5-difluoro-3-methyl-2-(((5-(trifluoromethyl)pyrimidin-2-yl)amino)methyl)piperidin-1-yl)methanone]	> 5000 nM	29 nM
Cc1nc(C(=O)N2CC(F)(F)C[C@@H](C)[C@H]2CNc2ncc(C(F)(F)F)cn2)c(-c2ccccc2F)s1 [Compound 66]	2080 nM	1 nM

Further lines, results first:

IC50 (OX2)	IC50 (OX1)	SMILES
> 5000 nM	6 nM	Cc1ccc(-c2sc(C)nc2C(=O)N2CC(F)(F)C[C@@H](C)[C@H]2CNc2cnc(C(F)(F)F)cn2)cc1 [Compound 138]
> 5000 nM	6 nM	C[C@@H]1CC(F)(F)CN(C(=O)c2nn(C)cc2-c2ccccn2)[C@@H]1CNc1cnc(C(F)(F)F)cn1 [Compound 130]
> 5000 nM	186 nM	Cc1nc(C(=O)N2CC(F)(F)C[C@@H](C)[C@H]2CNc2cnc(C(F)(F)F)cn2)c(-c2ccccc2)o1 [Compound 157]
> 5000 nM	11 nM	Cc1ccc(-c2cn(C)nc2C(=O)N2CC(F)(F)C[C@@H](C)[C@H]2CNc2cnc(C(F)(F)F)cn2)nc1 [Compound 133]
> 5000 nM	7 nM	C[C@@H]1CC(F)(F)CN(C(=O)c2cc(Cl)ccc2-n2nccn2)[C@@H]1CNc1ncc(C(F)(F)F)cn1 [Compound 10]
> 5000 nM	4 nM and 2 nM	COc1ccc(-c2cn(C)nc2C(=O)N2CC(F)(F)C[C@@H](C)[C@H]2CNc2cnc(C(F)(F)F)cn2)cc1 [Compound 125]
> 5000 nM	9 nM	C[C@@H]1CC(F)(F)CN(C(=O)c2cc(Cl)ccc2-c2nnn(C)n2)[C@@H]1CNc1cnc(C(F)(F)F)cn1 [Compound 161]
> 5000 nM	6 nM	Cc1ccc(-c2sc(C)nc2C(=O)N2CC(F)(F)C[C@@H](C)[C@H]2CNc2cnc(C(F)(F)F)cn2)nc1 [Compound 148]
> 5000 nM	4 nM	Cc1ccnc(-c2cn(C)nc2C(=O)N2CC(F)(F)C[C@@H](C)[C@H]2CNc2cnc(C(F)(F)F)cn2)c1 [Compound 134]
> 5000 nM	40 nM	COc1cccc(-c2cn(C)nc2C(=O)N2CC(F)(F)C[C@@H](C)[C@H]2CNc2cnc(C(F)(F)F)cn2)n1 [Compound 136]
> 5000 nM	62 nM	C[C@@H]1CC(F)(F)CN(C(=O)c2cn(C)nc2-c2ccccn2)[C@@H]1CNc1cnc(C(F)(F)F)cn1 [Compound 158]

Source: US12084437B2, “Halo-substituted piperidines as orexin receptor modulators” (AstraZeneca AB, priority 2016, dated 2024)
